Each molecule was assayed on IL-1β release, THP-1 cells (assay: IL-1β release assay in differentiated THP-1 cells stimulated with BzATP (Example 9)). Settings: Homo sapiens; 0.1 μM compound ("*" symbols); differentiated THP-1 cells, 250 uM BzATP; read-out: IL-1β% Inhib. @ 0.3 or 0.1 μM.
Assay type: cell-based
Procedure: THP-1 cells (ATCC Cat # 285-IF-100) are plated in 96 well plates at a concentration of 200,000 cells per well and allowed to differentiate in RPMI-1640 media (ATCC Cat # 30-2001) containing 10% FBS, 100 IU/mL penicillin, 100 ug/mL streptomycin, 100 ng/mL LPS and 100 ng/mL IFN-γ for 16 hours. Following differentiation, the cells are treated for an additional 2 hours in RPMI-1640 media containing 100 IU/mL penicillin, 100 ug/mL streptomycin and fresh LPS at 100 ng/mL. The cells are then pretreated for 30 minutes with the compound of interest at the appropriate concentration in RPMI media containing 100 IU/mL penicillin, 100 ug/mL streptomycin. Following the pretreatment 2′,3′-O-(4-benzoylbenzoyl)-adenosine 5′-triphosphate (Sigma Aldrich Cat # B6396) is added to a final concentration of 250 uM and the cells are incubated for an additional 45 minutes. 30 uL of cell supernatant is then collected and IL-1β levels determined via ELISA (R&D systems Cat. # HSLB50) according to manufacturer's recommendations using the Tecan Safire plate reader. Background adjusted IL-1β levels of drug treated and non-treated cells are used to calculate the percent inhibition.
The following compounds have been or can be prepared according to the synthetic methods described above. For the purpose of Table 1 below, activity of each compound, which can be determined using the IL-1β assay method described in Example 9, is expressed as follows: […]
The compounds set forth in Table 1 were tested for activity in a cellular model as described herein. Specifically, cells were pretreated with differing amounts of the compound under test and released IL-1β determined as in Example 9, above. Measurements were made and IC50 values, presented in Table 2, below, were determined by fitting the data to a four parameter logistic equation using GraphPad Prism software (GraphPad Software, Inc). The equation may be expressed by the following formula:
Y=Bottom+(Top−Bottom)/(1+10̂((Log EC50−X)*HillSlope))
Where X is the logarithm of concentration, Y is the response and Y starts at Bottom and goes to Top with a sigmoid shape.

Structure (SMILES)	inhibition at 0.1 µM
Cc1cc(F)ccc1S(=O)(=O)N1CCc2c(ccc(Cl)c2NC(=O)Cc2ccc(C(F)(F)F)cc2)C1 [Compound 3010]	0 to 25%
O=C(Cc1ccc(C(F)(F)F)cc1)Nc1c(Cl)ccc2c1CCN(S(=O)(=O)c1ccc(C(F)(F)F)cc1)C2 [Compound 3033]	0 to 25%
CN(C)CCC(=O)N1CCc2c(cccc2NC(=O)Cc2ccc(C(F)(F)F)c(F)c2)C1 [Compound 3035]	0 to 25%
Cc1ccc(F)cc1S(=O)(=O)N1CCc2c(ccc(Cl)c2NC(=O)Cc2ccc(C(F)(F)F)cc2)C1 [Compound 3011]	0 to 25%
N#Cc1cccc(S(=O)(=O)N2CCc3c(ccc(Cl)c3NC(=O)Cc3ccc(C(F)(F)F)cc3)C2)c1 [Compound 3028]	0 to 25%
O=C(Cc1ccc(C(F)(F)F)cc1)Nc1c(Cl)ccc2c1CCN(S(=O)(=O)c1ccccc1OC(F)(F)F)C2 [Compound 3034]	0 to 25%
O=C(Cc1ccc(C(F)(F)F)cc1)Nc1c(Cl)ccc2c1CCN(S(=O)(=O)c1cc(Cl)cc(Cl)c1)C2 [Compound 3015]	0 to 25%
O=C(Cc1ccc(C(F)(F)F)cc1)Nc1c(Cl)ccc2c1CCN(S(=O)(=O)c1cccc(F)c1)C2 [Compound 3003]	0 to 25%

Same assay, conditions: Homo sapiens; 0.3 μM compound ("+" symbols); differentiated THP-1 cells, 250 uM BzATP; read-out: IL-1β% Inhib. @ 0.3 or 0.1 μM

Structure (SMILES)	inhibition at 0.3 µM
O=C(Cc1cccc(C(F)(F)F)c1F)Nc1c(Cl)ccc2c1CCN(C(=O)c1ccc(Oc3ccccc3)nc1)C2 [Compound 3197]	0 to 25%
O=C(Cc1ccc(C(F)(F)F)c(F)c1)Nc1c(Cl)ccc2c1CCN(C(=O)c1ccc3ccccc3n1)C2 [Compound 3125]	26 to 50%
O=C(Cc1ccc(C(F)(F)F)c(F)c1)Nc1c(Cl)ccc2c1CCN(C(=O)c1ccc(Cl)cc1)C2 [Compound 3073]	0 to 25%
Cc1ccc2c(c1NC(=O)Cc1ccc(C(F)(F)F)c(F)c1)CCN(C(=O)[C@H]1CCCN1)C2 [Compound 3061, 2-(3-Fluoro-4-trifluoromethyl-phenyl)-N-[6-methyl-2-((R)-pyrrolidine-2-carbonyl)-1,2,3,4-tetrahydro-isoquinolin-5-yl]-acetamide]	≥ 76%
O=C(Cc1ccc(C(F)(F)F)c(F)c1)Nc1cccc2c1CCN(C(=O)C1COc3ccccc3O1)C2 (stereo not shown) [Compound 3036]	0 to 25%
O=C(Cc1ccc(C(F)(F)F)c(F)c1)Nc1c(Cl)ccc2c1CCN(C(=O)c1cc(Cl)cc(Cl)c1)C2 [Compound 3131]	0 to 25%
COc1ccc(OC)c(CC(=O)N2CCc3c(ccc(Cl)c3NC(=O)Cc3ccc(C(F)(F)F)c(F)c3)C2)c1 [Compound 3081]	0 to 25%
O=C(Cc1cccc(C(F)(F)F)c1F)Nc1c(Cl)ccc2c1CCN(C(=O)C1COc3ccccc3O1)C2 (stereo not shown) [Compound 3174]	0 to 25%
O=C(Cc1ccc(C(F)(F)F)c(F)c1)Nc1c(Cl)ccc2c1CCN(C(=O)c1ccc(F)cc1)C2 [Compound 3091]	0 to 25%
O=C(Cc1ccc(C(F)(F)F)c(F)c1)Nc1cccc2c1CCN(C(=O)C1COc3ccccc3C1)C2 (stereo not shown) [Compound 3040]	≥ 76%
O=C(Cc1ccc(C(F)(F)F)c(F)c1)Nc1c(Cl)ccc2c1CCN(C(=O)Cc1ccc(Cl)cc1)C2 [Compound 3105]	26 to 50%
O=C(Cc1cccc(C(F)(F)F)c1F)Nc1c(Cl)ccc2c1CCN(C(=O)c1cc(F)c(F)cc1F)C2 [Compound 3143]	0 to 25%
Cc1ccccc1C(=O)N1CCc2c(ccc(Cl)c2NC(=O)Cc2cccc(C(F)(F)F)c2F)C1 [Compound 3176]	0 to 25%
CC(C)C(=O)N1CCc2c(ccc(Cl)c2NC(=O)Cc2ccc(C(F)(F)F)c(F)c2)C1 [Compound 3088]	0 to 25%
N[C@@H](Cc1ccccc1)C(=O)N1CCc2c(cccc2NC(=O)Cc2ccc(C(F)(F)F)c(F)c2)C1 [Compound 3056, N-[2-((S)-2-Amino-3-phenyl-propionyl)-1,2,3,4-tetrahydro-isoquinolin-5-yl]-2-(3-fluoro-4-trifluoromethyl-phenyl)-acetamide]	≥ 76%
O=C(Cc1cccc(C(F)(F)F)c1F)Nc1c(Cl)ccc2c1CCN(C(=O)CCC1CCCCC1)C2 [Compound 3194]	26 to 50%
COc1ccccc1C(=O)N1CCc2c(ccc(Cl)c2NC(=O)Cc2cccc(C(F)(F)F)c2F)C1 [Compound 3184]	0 to 25%

Structure (SMILES)	inhibition at 0.3 µM
O=C(Cc1cccc(C(F)(F)F)c1F)Nc1c(Cl)ccc2c1CCN(C(=O)c1ccc(C(F)(F)F)cc1F)C2 [Compound 3169]	0 to 25%
O=C(Cc1ccc(C(F)(F)F)c(F)c1)Nc1cccc2c1CCN(C(=O)CC1CCCCC1)C2 [Compound 3042]	≥ 76%
COc1ccccc1C(=O)N1CCc2c(ccc(Cl)c2NC(=O)Cc2ccc(C(F)(F)F)c(F)c2)C1 [Compound 3120]	0 to 25%
O=C(Cc1cccc(C(F)(F)F)c1F)Nc1c(Cl)ccc2c1CCN(C(=O)c1ccccc1F)C2 [Compound 3178]	0 to 25%
Cc1ccc2c(c1NC(=O)Cc1cccc(C(F)(F)F)c1F)CCN(C(=O)[C@H]1CCCN1)C2 [Compound 3062]	≥ 76%
O=C(Cc1ccc(C(F)(F)F)c(F)c1)Nc1cccc2c1CCN(C(=O)C1CC1)C2 [Compound 3041]	0 to 25%
O=C(Cc1ccc(C(F)(F)F)c(F)c1)Nc1c(Cl)ccc2c1CCN(C(=O)c1ccc(Oc3ccccc3)nc1)C2 [Compound 3133]	0 to 25%
O=C(Cc1ccc(C(F)(F)F)c(F)c1)Nc1c(Cl)ccc2c1CCN(C(=O)CC1CCCC1)C2 [Compound 3103]	51 to 75%
O=C(Cc1ccc(C(F)(F)F)c(F)c1)Nc1c(Cl)ccc2c1CCN(C(=O)c1nccs1)C2 [Compound 3134]	26 to 50%
O=C(Cc1cccc(C(F)(F)F)c1F)Nc1c(Cl)ccc2c1CCN(C(=O)/C=C/c1ccccc1)C2 [Compound 3182]	0 to 25%
O=C(Cc1cccc(C(F)(F)F)c1F)Nc1c(Cl)ccc2c1CCN(C(=O)C1CC1c1ccccc1)C2 (stereo not shown) [Compound 3162]	26 to 50%
Cc1cc(C(=O)N2CCc3c(ccc(Cl)c3NC(=O)Cc3cccc(C(F)(F)F)c3F)C2)nn1C [Compound 3181]	0 to 25%
O=C(Cc1cccc(C(F)(F)F)c1F)Nc1c(Cl)ccc2c1CCN(C(=O)C1CCCC1)C2 [Compound 3144]	0 to 25%
O=C(Cc1ccc(C(F)(F)F)c(F)c1)Nc1cccc2c1CCN(C(=O)[C@H]1COc3ccccc3O1)C2 [Compound 3037]	≥ 76%
O=C(Cc1ccc(C(F)(F)F)c(F)c1)Nc1c(Cl)ccc2c1CCN(C(=O)CCC1CCCCC1)C2 [Compound 3130]	51 to 75%
CC(C)(C)C(=O)N1CCc2c(ccc(Cl)c2NC(=O)Cc2ccc(C(F)(F)F)c(F)c2)C1 [Compound 3092]	≥ 76%

Same assay, conditions: Homo sapiens; THP-1 cells, BzATP 250 uM, four parameter logistic fit

Structure (SMILES)	IC50
Cc1ccc2c(c1NC(=O)Cc1ccc(C(F)(F)F)c(F)c1)CCN(C(=O)CCC1CCCCC1)C2 [Compound 3251]	61.9 nM
COc1ccc2c(c1NC(=O)Cc1ccc(C(F)(F)F)c(F)c1)CCN(C(=O)C1(O)CC1)C2 [Compound 3476, 2-(3-Fluoro-4-trifluoromethyl-phenyl)-N-[2-(1-hydroxy-cyclopropanecarbonyl)-6-methoxy-1,2,3,4-tetrahydro-isoquinolin-5-yl]-acetamide]	325 nM
Cc1ccc2c(c1NC(=O)Cc1ccc(C(F)(F)F)c(F)c1)CCN(C(=O)[C@H]1CCCN1)C2 [Compound 3061, 2-(3-Fluoro-4-trifluoromethyl-phenyl)-N-[6-methyl-2-((R)-pyrrolidine-2-carbonyl)-1,2,3,4-tetrahydro-isoquinolin-5-yl]-acetamide]	35.1 nM
O=C(Cc1ccc(C(F)(F)F)c(F)c1)Nc1cccc2c1CCN(C(=O)C1COc3ccccc3O1)C2 (stereo not shown) [Compound 3036]	> 1000 nM
CN(C)CCC(=O)N1CCc2c(cccc2NC(=O)Cc2ccc(C(F)(F)F)c(F)c2)C1 [Compound 3035]	967 nM
O=C(Cc1ccc(C(F)(F)F)c(F)c1)Nc1cccc2c1CCN(C(=O)C1COc3ccccc3C1)C2 (stereo not shown) [Compound 3040]	64.2 nM
O=C(Cc1cccc(C(F)(F)F)c1F)Nc1c(Cl)ccc2c1CCN(S(=O)(=O)C1CC1)C2 [Compound 3313]	34.8 nM
Cc1ccc2c(c1NC(=O)Cc1ccc(C(F)(F)F)c(F)c1)CCN(C(=O)CCC1CCCC1)C2 [Compound 3207]	204 nM
N[C@@H](Cc1ccccc1)C(=O)N1CCc2c(cccc2NC(=O)Cc2ccc(C(F)(F)F)c(F)c2)C1 [Compound 3056, N-[2-((S)-2-Amino-3-phenyl-propionyl)-1,2,3,4-tetrahydro-isoquinolin-5-yl]-2-(3-fluoro-4-trifluoromethyl-phenyl)-acetamide]	56.3 nM
Cc1ccc2c(c1NC(=O)Cc1ccc(C(F)(F)F)c(F)c1)CCN(C(=O)[C@H]1CCN1)C2 [Compound 3480]	74.9 nM
Cc1ccc2c(c1NC(=O)Cc1ccc(C(F)(F)F)c(F)c1)CCN(S(=O)(=O)C(C)C)C2 [Compound 3414]	83 nM
O=C(Cc1ccc(C(F)(F)F)c(F)c1)Nc1cccc2c1CCN(C(=O)CC1CCCCC1)C2 [Compound 3042]	153 nM
Cc1ccc2c(c1NC(=O)Cc1ccc(C(F)(F)F)c(F)c1)CCN(C(=O)C1CC1)C2 [Compound 3469]	52.5 nM
Cc1ccc2c(c1NC(=O)Cc1cccc(C(F)(F)F)c1F)CCN(C(=O)[C@H]1CCCN1)C2 [Compound 3062]	76.7 nM
O=C(Cc1ccc(C(F)(F)F)c(F)c1)Nc1cccc2c1CCN(C(=O)C1CC1)C2 [Compound 3041]	495 nM
O=C(Cc1ccc(C(F)(F)F)c(F)c1)Nc1c(Cl)ccc2c1CCN(C(=O)CC1CCCC1)C2 [Compound 3103]	172 nM
COc1ccc2c(c1NC(=O)Cc1ccc(C(F)(F)F)c(F)c1)CCN(C(=O)C(C)(C)O)C2 [Compound 3481]	926 nM
CCS(=O)(=O)N1CCc2c(ccc(Cl)c2NC(=O)Cc2ccc(C(F)(F)F)c(F)c2)C1 [Compound 3272]	51.4 nM
O=C(Cc1ccc(C(F)(F)F)c(F)c1)Nc1cccc2c1CCN(C(=O)[C@H]1COc3ccccc3O1)C2 [Compound 3037]	145 nM
COc1ccc2c(c1NC(=O)Cc1ccc(C(F)(F)F)c(F)c1)CCN(C(=O)C1CC1)C2 [Compound 3475]	243 nM

From patent publication US20100298285A1, “Biclycloheteroaryl Compounds as P2x7 Modulators and Uses Thereof” (priority 2006, published 2010)
